Measured values from patent publication US20080214658A1, “Composition Comprising Isoorientin for Suppressing Histamine” (UNIGEN, INC., priority 2005, published 2008).

Test system: guinea pig lung mast cells
Experiment: Histamine release from passively sensitized (anti-OVA antibody) lung mast cells activated by OVA
Format: cell-based
Details: for Histamine (%) (amount of histamine released as percentage of the total histamine content) / inhibition % of histamine release: 4 × 10^5 mast cells, added 5 min before 1.0 μg/ml OVA challenge; for inhibition % of histamine release: vs OVA alone
Experimental: In each enzyme treatment, the lung tissues were filtered with nylon mesh and metal mesh (100 μm), and centrifuged (called as monodispersed mast cells). Pellets were suspended in 16 ml of buffer (TG buffer) containing Ca^2+, Mg^2+-free, and 0.1% gelatin, loaded to rough Percoll ([…] density), and centrifuged at 1,400 rpm for 25 minutes to give pellets. The cells were suspended again in 8 ml of TG buffer, loaded to discontinuous Percoll ([…] density), and centrifuged again at 1400 rpm for 25 minutes to afford various kinds of cell layers. Among them, mast cells were mainly present in 3rd or 4th layer, and so cells obtained from these layers were washed with TGCM buffer twice. […] Mast cells (4×10^5 cells) were treated with guinea pig IgG1 antibody (anti-OVA 1 ml/10^6 cells), reacted at 37° C. for 45 minutes, and then washed with TGCM buffer to remove anti-OVA antibody which was not bound to mast cells membrane. The cells were suspended in 1 ml of TGCM buffer, and treated with drug (testing substance) at each concentration for 5 minutes. The suspension was […] with 1.0 μg/ml OVA (ovalbumin), reacted for 10 minutes, cooled at ice, and centrifuged. After the centrifuge, histamine in supernatant was measured. […] The amount of histamine contained in each sample was calculated as percentage against the amount of histamine contained in total cells used, as follows. [formula]

Structure (SMILES): O=c1cc(-c2ccc(O)c(O)c2)oc2cc(O)c([C@@H]3O[C@H](CO)[C@@H](O)[C@H](O)[C@H]3O)c(O)c12 [Isoorientin, isoorientin]
- IC50 (Cavia porcellus, Mast cell, guinea pig lung mast cells, anti-OVA sensitized, OVA challenge, read-out: IC50 value, inhibition of histamine release in mast cells): 30 µg/mL
- Histamine (%) (amount of histamine released as percentage of the total histamine content) (sample 1.25 μg): 27.9 ± 2.62%
- inhibition % of histamine release (sample 1.25 μg): 14%
- Histamine (%) (amount of histamine released as percentage of the total histamine content) (sample 2.5 μg): 25.6 ± 1.49%
- inhibition % of histamine release (sample 2.5 μg): 21.3%
- Histamine (%) (amount of histamine released as percentage of the total histamine content) (sample 5 μg): 21.9 ± 2.01%
- inhibition % of histamine release (sample 5 μg): 32.6%
- Histamine (%) (amount of histamine released as percentage of the total histamine content) (sample 10 μg): 17.2 ± 1.07%
- inhibition % of histamine release (sample 10 μg): 47.2%
